Experimental data taken from patent publication US5512549A, “Glucagon-like insulinotropic peptide analogs, compositions, and methods of use” (Eli Lilly and Company, priority 1994, dated 1996).

Experiments:
Sprague Dawley rats = experiment: Rat I.V. Hyperglycemic (150 mg/dl) Clamp Test; type: in vivo; settings: for Insulin Change AUC: 0-15 min; for GIR Change AUC: 0-30 min; for Max Insulin Change: 90 minute test period; for Duration of Insulin Effect: time average insulin change >0 ng/ml
Description: b) Hyperglycemic Clamp Studies
Experiments were conducted in chronically catheterized, normal, male Sprague Dawley rats weighing about 350 grams. At least a week prior to studies, surgery was performed on the rats under isoflurane anesthesia. Two catheters were implanted into the jugular vein for infusions of glucose and peptide and one catheter into the carotid artery for blood sampling. The catheters were exteriorized through the skin at the vertex of the head, filled with glycerol/heparin solution (3:1,v/v) and closed off with a one centimeter stainless steel plug. Animals were housed individually in wire mesh cages and allowed free access to standard rat chow diet and water.
Catheterized rats were fasted overnight prior to studies. On the morning of the experiment, rats were weighed and sampling tubings connected to their indwelling catheters. The tubings were enclosed in a light weight stainless steel spring for protection. During the study, rats were kept unrestrained in a plastic shoe box cage (12"×10"×12") with about one inch of bedding. After 15 minutes of acclimation, a basal sample was taken for measurement of insulin and glucose levels. At time -60 minutes, rats were given a bolus of 20% dextrose to raise plasma glucose to 150 mg/dl. The plasma glucose concentration was maintained at this level for the duration of the study by measuring the plasma glucose concentration every five minutes and adjusting the calibrated variable infusion pump accordingly. Blood samples were collected at -15 and 0 minutes for baseline measurements. Immediately after taking the zero minute sample, peptide (130-155 μM stock concentration, diluted in phosphate buffered saline) was injected via the jugular vein catheter and flushed with saline. Blood samples were taken for glucose and insulin determinations at 2, 4, 6, 8, 10, 12, 15, 20, 25, 30, 40, 50, 60, 70, 80, and 90 minutes. All blood samples were collected into syringes coated with sodium heparin, transferred into micro centrifuge tubes and placed on ice. Blood samples were then centrifuged in a micro centrifuge to separate the plasma component.
Plasma glucose levels were determined on the day of the study by the glucose oxidase method using the Beckman Glucose Analyzer 2, while the insulin concentrations were measured by a commercial kit (Diagnostic Products Corporation) with rat insulin standard.
Insulin change (the change in insulin from the baseline value) was calculated as the difference between the insulin concentration at time t and the average insulin concentration prior to injection of test substance. The area under the insulin change curve was calculated using the trapezoidal rule. Glucose infusion rate change (the percent change in the glucose infusion rate from the baseline value) was calculated as the difference between the glucose infusion rate value at time t and the average glucose infusion rate prior to injection of test substance, divided by the average glucose infusion rate prior to injection of test substance, times 100. The area under the glucose infusion rate change curve was calculated on the absolute glucose infusion rate change values (calculated as the difference between the glucose infusion rate value at time t and the glucose infusion rate prior to injection of test substance) using the trapezoidal rule. Values are listed as the mean ± the standard error of the mean (SEM).

beagles = experiment: Dog S.C. Hyperglycemic (150 mg/dl) Clamp Test; type: in vivo; settings: S.C. 10 μg/kg; for GIR Change AUC / Insulin Change AUC: 0-120 min; for GIR Change AUC / Insulin Change AUC / Max Insulin Change: mean ± SEM; for Max Insulin Change: 120 minute test period; for Duration of Insulin Effect: time average insulin change consistently >0.5 ng/ml
Description: a) Hyperglycemic Clamp Studies
Experiments were conducted in overnight-fasted, conscious, adult (1-2 years of age) male and female beagles weighing 8-15 kg. At least ten days prior to the study, animals were anesthetized with isoflurane, and a cut-down was made in the left or right inguinal region. Silastic catheters were inserted into the femoral artery and the proximal caudal femoral vein and secured with 4-0 silk suture. The free ends of the catheters were passed subcutaneously to the back using a trocar needle. The catheters were then filled with a glycerol/heparin solution (3:1, v/v; final heparin concentration of 250 KIU/ml), and the free ends were knotted and placed in a subcutaneous pocket to allow complete closure of the skin. Keflex® was administered both pre-operatively (20 mg/kg, IV and 20 mg/kg, I.M.) and post-operatively (250 mg, p.o. once daily for seven days) to prevent infections. Torbugesic (1.5 mg/kg, I.M.) was administered post-operativelyto control pain.
Blood was drawn just prior to the study day to determine the health of the animal. Only animals with hematocrits above 38% and leukocyte counts below 16,000/mm^3 were used.
The afternoon before the experiment, the free ends of the catheters were exteriorized from the subcutaneous pocket through a small incision made under local anesthesia (2% lidocaine), and the dog was fitted with a tether system jacket and collar assembly.
The morning of the experiment, the contents of the catheters were aspirated, the catheters were flushed with saline, and extension lines (protected by a stainless steel tether) were attached to the catheters. On mornings of IV injection experiments, an over-the-needle, teflon catheter was inserted percutaneously into a cephalic vein in preparation for the administration of an IV bolus of test substance. The dog was placed in a metabolic cage, and the catheter extension lines and tether were attached to a swivel system to allow the dog to move freely about the cage. At this time (-60 minutes), an exogenous infusion of glucose (50% w/v in water) was begun through the chronic venous catheter. Glucose was infused in a descending stepwise fashion over the first six minutes of the study to rapidly raise the plasma glucose concentration to 150 mg/dl. Plasma glucose concentrations were determined every 2.5 to 7.5 minutes throughout the remainder of the study, and the glucose infusion rate was adjusted appropriately to maintain the plasma glucose concentration at 150 mg/dl.
Sixty minutes after the start of the glucose infusion (time 0), test substance was administered either intravenously (1.0, 2.9, 5.0 or 10.0 μg/kg; dose dissolved in 2 ml of saline containing 0.3% dog albumin, w/v) through the previously inserted teflon catheter or subcutaneously (10 μg/kg; 150 μM in phosphate buffered saline) in the dorsal aspect of the neck.
Arterial blood samples (3.5 ml) were taken at -30, -15, 0, 2.5, 5, 7.5, 10, 12.5, 15, 20, 30, 45, 60, 75, 90, 105 and 120 minutes during the IV studies and at -30, -15, 0, 3, 6, 9, 12, 15, 20, 30, 45, 60, 75, 90, 105 and 120 minutes during the SC studies. Samples were collected in vacuum blood collection tubes containing disodium EDTA and immediately placed on ice. To prevent proteolytic cleavage of GLP-1(7-37) in the plasma samples, 1.5 ml of the EDTA containing blood were transferred to a polypropylene tube containing 40 μl of aprotinin (10,000 KIU/ml) and mixed well. The samples were centrifuged, and the resulting plasma was transferred to polypropylene test tubes and stored on ice for the duration of the study.
At the conclusion of the experiment, the animal was anesthetized (isoflurane); the catheters were flushed with fresh saline and filled with the glycerol/heparin mixture; the free ends of the catheters were knotted and placed subcutaneously as described earlier; and antibiotic was administered (300 mg Keflex®, I.M.). […]

GLP-1(7-37)OH
Insulin Change AUC (Sprague Dawley rats; I.V. 0.05 μg/kg): 3.0 ± 1.6 ng·min/mL | GIR Change AUC (Sprague Dawley rats; I.V. 0.05 μg/kg): 48 ± 22 mg/kg | Max Insulin Change (Sprague Dawley rats; I.V. 0.05 μg/kg): 1.6 ± 0.3 ng/mL | Duration of Insulin Effect (Sprague Dawley rats; I.V. 0.05 μg/kg): 6 min | Insulin Change AUC (Sprague Dawley rats; I.V. 0.1 μg/kg): 7.3 ± 2.8 ng·min/mL | GIR Change AUC (Sprague Dawley rats; I.V. 0.1 μg/kg): 150 mg/kg | Max Insulin Change (Sprague Dawley rats; I.V. 0.1 μg/kg): 3.6 ± 1.2 ng/mL | Duration of Insulin Effect (Sprague Dawley rats; I.V. 0.1 μg/kg): 6 min | Insulin Change AUC (Sprague Dawley rats; I.V. 0.2 μg/kg): 5.8 ± 0.9 ng·min/mL | GIR Change AUC (Sprague Dawley rats; I.V. 0.2 μg/kg): 154 mg/kg | Max Insulin Change (Sprague Dawley rats; I.V. 0.2 μg/kg): 2.8 ± 0.1 ng/mL | Duration of Insulin Effect (Sprague Dawley rats; I.V. 0.2 μg/kg): 6 min | Insulin Change AUC (Sprague Dawley rats; I.V. 0.6 μg/kg): 14.9 ng·min/mL | GIR Change AUC (Sprague Dawley rats; I.V. 0.6 μg/kg): 151 mg/kg | Max Insulin Change (Sprague Dawley rats; I.V. 0.6 μg/kg): 4.9 ± 1.3 ng/mL | Duration of Insulin Effect (Sprague Dawley rats; I.V. 0.6 μg/kg): 6 min | Insulin Change AUC (Sprague Dawley rats; I.V. 1.0 μg/kg): 16.7 ng·min/mL | GIR Change AUC (Sprague Dawley rats; I.V. 1.0 μg/kg): 131 mg/kg | Max Insulin Change (Sprague Dawley rats; I.V. 1.0 μg/kg): 7.7 ± 0.8 ng/mL | Duration of Insulin Effect (Sprague Dawley rats; I.V. 1.0 μg/kg): 6 min | Insulin Change AUC (Sprague Dawley rats; I.V. 2.0 μg/kg): 11.5 ng·min/mL | GIR Change AUC (Sprague Dawley rats; I.V. 2.0 μg/kg): 152 mg/kg | Max Insulin Change (Sprague Dawley rats; I.V. 2.0 μg/kg): 3.6 ± 0.9 ng/mL | Duration of Insulin Effect (Sprague Dawley rats; I.V. 2.0 μg/kg): 6 min | Insulin Change AUC (Sprague Dawley rats; I.V. 4.0 μg/kg): 10.4 ng·min/mL | GIR Change AUC (Sprague Dawley rats; I.V. 4.0 μg/kg): 139 mg/kg | Max Insulin Change (Sprague Dawley rats; I.V. 4.0 μg/kg): 2.0 ± 0.4 ng/mL | Duration of Insulin Effect (Sprague Dawley rats; I.V. 4.0 μg/kg): 40 min | GIR Change AUC (beagles): 696 ± 145 mg/kg | Insulin Change AUC (beagles): 64 ± 33 ng·min/mL | Max Insulin Change (beagles): 1.6 ± 0.8 ng/mL | Duration of Insulin Effect (beagles): 27 min

Lys^34 -N^ε -octanoyl-GLP-1(7-37)OH [Lys^34-N^ε-octanoyl-GLP-1(7-37)OH]
Insulin Change AUC (Sprague Dawley rats; I.V. 1.0 μg/kg): 13.2 ng·min/mL | GIR Change AUC (Sprague Dawley rats; I.V. 1.0 μg/kg): 132 mg/kg | Max Insulin Change (Sprague Dawley rats; I.V. 1.0 μg/kg): 2.4 ± 0.8 ng/mL | Duration of Insulin Effect (Sprague Dawley rats; I.V. 1.0 μg/kg): 4 min | GIR Change AUC (beagles): 532 ± 112 mg/kg | Insulin Change AUC (beagles): 29 ± 8 ng·min/mL | Max Insulin Change (beagles): 0.6 ± 0.3 ng/mL | Duration of Insulin Effect (beagles): not active
